# Source: patent US9163018B2, “Method of treatment of age-related macular degeneration (AMD)” (Prana Biotechnology Limited, priority 2006, dated 2015)
# How the values were obtained:
# [1] = system: primary cortical neuronal cultured cells; experiment: Test compound cytotoxicity, MTS assay, primary cortical neuronal cultures; format: cell-based, mouse; settings: for Cytotox (% viable) Neuronal cells at 1 μM: 1 μM test compound; for Cytotox (% viable) Neuronal cells at 10 μM: 10 μM test compound
# Method: Assay 2. Neurotoxicity Assays
# Primary Cortical Neuronal Cultures
# Media was then replaced with Neurobasal media (Invitrogen Life Technologies) and B27 supplements (Invitrogen Life Technologies). Cultures were maintained at 37° C. in 5% CO2. Prior to experimentation, the culture medium was replaced with Neurobasal media and B27 minus antioxidants (Invitrogen Life Technologies).
# Assay 3. MTS Assay for Cell Viability
# Cell viability is determined using the MTS assay. Culture medium is replaced with fresh neurobasal medium plus B27 supplements minus antioxidants. 1/10th volume MTS solution (Cell Titre 96 Aqueous One, Promega Corporation) and incubated at 37° C., 2 hrs. 200 microliter aliquots are measured with a spectrophotometer at 560 nm.
# Assay 4. Assay for Test Compound Cytoxicity
# Neuronal cortical cells were cultured for five days as per Assay 2 in NB media and B27 supplement.
# On day six the test compounds were added to the neuronal cell cultures in NB media and B27 supplement minus antioxidants.
# Test compounds were dissolved in 100% DMSO to a concentration of 2.5 mM (10 mM if excess compound was weighed out per vial—then diluted to 2.5 mM).
# Test compounds were not added directly to cells, instead they were added to a 48 well ‘Drug Plate’ as comprised below:
# The Drug Plate was incubated at 37° C. for 15 mins. 200 μl of each well was added in triplicate to the corresponding cell plate. The cell plate was incubated at 37 C, for 4 days.
# On completion of the assay, 1/10 volume MTS was added per well of plate (ie 25 μl/250 μl). The plates were incubated at 37 C for 2 hrs, and then absorbance was read at 560 nm.
# [2] = system: Abeta in extract of post-mortem human AD brain tissue; experiment: BAS: human brain amyloid solubilization assay; format: biochemical; settings: for BAS max effect: max effect across the concentration range, referenced to baseline PBS; for BAS concentration or concentration range at which an effect is observed: units printed in each cell
# Method: Assay 5. Human Brain Amyloid Solubilization Assay
# This assay was performed in order to assess the ability of a test compound to mobilise Aβ, as an example form of amyloid, from the insoluble to the soluble phase of an extract of tissue from post mortem human AD brain.
# Up to 0.5 g of plaque-bearing cortex without meninges was homogenized using a DIAX 900 homogenizer (Hendolph and Co, Kelheim, Germany) or other suitable device for three 30-second periods at full speed in 2 ml of ice-cold phosphate-buffered saline, pH 7.4. To obtain the phosphate-buffered saline-extractable fraction, the homogenate was centrifuged at 100,000×g for 30 min and the supernatant removed. Alternatively, the tissue was freeze dried then pulverized to form a powder which was then weighed out into aliquots for extraction as above. Supernatant, either freeze-dried and resuspended or in unconcentrated form, was dissolved in 200 μl of Tris-Tricine sodium dodecyl sulfate (SDS) sample buffer pH 8.3 containing 8% SDS, 10% 2-mercaptoethanol. Aliquots (10 μl) were then boiled for 10 minutes before SDS-polyacrylamide gel electrophoresis. The insoluble fraction of the cortical samples was obtained by resuspending the initial pelleted sample in 1 ml of phosphate-buffered saline, A 50-μl aliquot of this suspension was then boiled in […] of sample buffer as above.
# Tris-Tricine polyacrylamide gel electrophoresis was performed by loading appropriately diluted samples on to 10% to 20% gradient gels (Novex, San Diego, Calif.) followed by transfer on to 0.2-μm nitrocellulose membrane (Bio-Rad, Hercules, Calif.). Aβ was detected by using monoclonal antibody W02, which detects residues 5 through 8, […] (or another suitable antibody) in conjunction with horseradish peroxidase-conjugated rabbit anti-mouse IgG (Dako, Denmark), and visualized by using enhanced chemiluminescence (eg ECL; Amersham Life Science, Buckinghamshire, UK). Each gel included three lanes containing 0.5, 1, and 2 ng of synthetic Aβ40 (Keck Laboratory, Yale University, New Haven, Conn.) as reference standards.
# Blot films were scanned by using a suitable imaging system such as the UVP gel documentation system, and densitometry performed using suitable software, eg UVP Labworks. The dynamic range of the film/scanner was determined by using a step tablet (No. 911ST600, Kodak, Rochester N.Y.), a calibrated film exposed by the manufacturer to provided steps of known increasing intensity. The quantifiable range of signal intensity for densitometric analysis of the mono- and dimeric Aβ bands was based on the comparison with a curve obtained by scanning and densitometry of the step tablet.
# All samples were analyzed at least twice, and gel loadings and dilutions were adjusted to fit within the quantifiable region of the standard curve. The proportion of ‘soluble’ to ‘insoluble’ Aβ may be used to determine the efficiency of extraction of a test compound compared with the efficiency of a known compound. The insoluble Aβ being comprised of the pelletable fraction derived from the insoluble amyloid plaque from the above cortical samples and the soluble fraction comprising monomeric and/or oligomeric soluble Aβ.
# [3] = biological target: T1, Aβ 1-42 (Homo sapiens, UniProt P05067); experiment: Fluorometric H2O2 assay (inhibition of Abeta H2O2 production); format: biochemical; settings: concentration required to inhibit 50% of Abeta H2O2 production; read-out: H2O2 IC50
# T1 construct: The reaction solutions contained Aβ 1-42 at concentrations
# Method: Assay 1. Fluorometric H2O2 Assay
# A fluorometric assay was used to test the ability of a test compound to inhibit hydrogen peroxide generation by Aβ in the presence of copper based on dichlorofluoroscein diacetate (DCF; Molecular Probes, Eugene Oreg.). The DCF solution (5 mM) in 100% dimethyl sulphoxide (previously purged with argon for 2 hr at 20° C.) was deacetylated in the presence of 0.25M NaOH for 30 min and neutralized at pH 7.4 to a final concentration of 1 mM. Horseradish peroxidase (HRP) stock solution was prepared to 1 μM at pH 7.4. The reactions were carried out in PBS, pH 7.4 in a 96 well plate (total volume=250 μl/well). […] The reaction mixture was incubated at 37 C for 60 min. […] H2O2 concentration may be established by comparing fluorescence with the H2O2 standards, Inhibition of Aβ H2O2 production was assayed by including a given concentration of test compound(s) in the test wells.
# T1 sequence (P05067 672-713 limits assumed): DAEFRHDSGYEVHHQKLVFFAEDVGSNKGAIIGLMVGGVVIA
smiles,measurement,setting,value
COc1cc(NS(=O)(=O)c2ccc(C)cc2)c2ncccc2c1 [PB 116],Cytotox (% viable) Neuronal cells at 1 μM,[1],81%
same,Cytotox (% viable) Neuronal cells at 10 μM,[1],60%
same,BAS max effect,[2],220%
same,IC50,[3],500 nM
Oc1c(Br)cc(-c2ccccc2)c2cccnc12 [PB 806],Cytotox (% viable) Neuronal cells at 1 μM,[1],100%
same,Cytotox (% viable) Neuronal cells at 10 μM,[1],97%
same,BAS max effect,[2],311%
same,IC50,[3],< 900 nM
Oc1c(-c2ccccc2)cc(-c2ccccc2)c2cccnc12 [PB 809],Cytotox (% viable) Neuronal cells at 1 μM,[1],97%
same,Cytotox (% viable) Neuronal cells at 10 μM,[1],26%
same,BAS max effect,[2],146%
same,IC50,[3],< 1800 nM
COc1cccc(-c2cc(Cl)c3cccnc3c2O)c1 [PB 810],Cytotox (% viable) Neuronal cells at 1 μM,[1],83%
same,Cytotox (% viable) Neuronal cells at 10 μM,[1],71%
same,BAS max effect,[2],184%
same,IC50,[3],< 700 nM
COc1ccc(-c2cc(Cl)c3cccnc3c2O)cc1 [PB 814],Cytotox (% viable) Neuronal cells at 1 μM,[1],97%
same,Cytotox (% viable) Neuronal cells at 10 μM,[1],31%
same,BAS max effect,[2],209%
same,IC50,[3],< 1100 nM
Cc1ccccc1-c1cc(-c2ccccc2C)c2cccnc2c1O [PB 852],Cytotox (% viable) Neuronal cells at 1 μM,[1],93%
same,Cytotox (% viable) Neuronal cells at 10 μM,[1],34%
same,BAS max effect,[2],220%
same,IC50,[3],2100 nM
Oc1c(Br)cc(-c2cc(F)cc(F)c2)c2cccnc12 [PB 853],Cytotox (% viable) Neuronal cells at 1 μM,[1],"Neuronal cells: 95, 95%"
same,Cytotox (% viable) Neuronal cells at 10 μM,[1],"Neuronal cells: 95, 95%"
same,BAS max effect,[2],221%
same,IC50,[3],770 nM
Cc1ccccc1-c1cc(Cl)c2cccnc2c1O [PB 854],Cytotox (% viable) Neuronal cells at 1 μM,[1],"Neuronal cells: 100, 100%"
same,Cytotox (% viable) Neuronal cells at 10 μM,[1],"Neuronal cells: 100, 100%"
same,BAS max effect,[2],520%
same,IC50,[3],780 nM
Cc1cccc(-c2cc(Cl)c3cccnc3c2O)c1 [PB 859],Cytotox (% viable) Neuronal cells at 1 μM,[1],98%
same,Cytotox (% viable) Neuronal cells at 10 μM,[1],73%
same,BAS max effect,[2],266%
same,IC50,[3],< 670 nM
Oc1c(I)cc(-c2ccccc2C(F)(F)F)c2cccnc12 [PB 860],Cytotox (% viable) Neuronal cells at 1 μM,[1],91%
same,Cytotox (% viable) Neuronal cells at 10 μM,[1],90%
same,BAS max effect,[2],160%
same,IC50,[3],790 nM
COc1ccccc1-c1cc(-c2ccccc2OC)c2cccnc2c1O [PB 862],Cytotox (% viable) Neuronal cells at 1 μM,[1],100%
same,Cytotox (% viable) Neuronal cells at 10 μM,[1],52%
same,BAS max effect,[2],256%
same,IC50,[3],< 770 nM
COc1ccccc1-c1cc(I)c(O)c2ncccc12 [PB 863],Cytotox (% viable) Neuronal cells at 1 μM,[1],91%
same,Cytotox (% viable) Neuronal cells at 10 μM,[1],35%
same,BAS max effect,[2],386%
same,IC50,[3],< 730 nM
Oc1c(-c2ccccc2C(F)(F)F)cc(Cl)c2cccnc12 [PB 864],Cytotox (% viable) Neuronal cells at 1 μM,[1],96%
same,Cytotox (% viable) Neuronal cells at 10 μM,[1],93%
same,BAS max effect,[2],208%
same,IC50,[3],770 nM
Cc1ccc(-c2ccc(C)cn2)nc1 [PB 896],Cytotox (% viable) Neuronal cells at 10 μM,[1],Neuronal cells: 86% (at 10 uM)
same,BAS max effect,[2],358%
same,IC50,[3],150 nM
FC(F)(F)CSc1cccc2cccnc12 [PB 913],Cytotox (% viable) Neuronal cells at 1 μM,[1],100%
same,Cytotox (% viable) Neuronal cells at 10 μM,[1],95%
same,BAS max effect,[2],450%
same,IC50,[3],990 nM
CN1CCCN(C)CCN(C)CCCN(C)CC1 [PB 933],Cytotox (% viable) Neuronal cells at 10 μM,[1],Neuronal cells: 127% (at 10 μM)
same,BAS max effect,[2],279%
same,IC50,[3],110 nM
Oc1ccccc1-c1cc(Cl)c2cccnc2c1O [PB 947],Cytotox (% viable) Neuronal cells at 1 μM,[1],100%
same,Cytotox (% viable) Neuronal cells at 10 μM,[1],70%
same,BAS max effect,[2],244%
same,IC50,[3],1140 nM
O=C(NCCc1cnc[nH]1)c1ccc2cccc(O)c2n1 [PB 948],Cytotox (% viable) Neuronal cells at 1 μM,[1],"100, 100%"
same,Cytotox (% viable) Neuronal cells at 10 μM,[1],"100, 100%"
same,BAS max effect,[2],576%
same,IC50,[3],150 nM
O=C(NCc1ccccn1)c1ccc2cccc(O)c2n1 [PB 949],Cytotox (% viable) Neuronal cells at 1 μM,[1],96%
same,Cytotox (% viable) Neuronal cells at 10 μM,[1],85%
same,BAS max effect,[2],201%
same,IC50,[3],430 nM
O=C(NCCc1ccccn1)c1ccc2cccc(O)c2n1 [PB 950],Cytotox (% viable) Neuronal cells at 1 μM,[1],95%
same,Cytotox (% viable) Neuronal cells at 10 μM,[1],93%
same,BAS max effect,[2],741%
same,IC50,[3],150 nM
O=C(Nc1nccs1)c1ccc2cccc(O)c2n1 [PB 952],Cytotox (% viable) Neuronal cells at 1 μM,[1],"Neuronal cells: 100, 100%"
same,Cytotox (% viable) Neuronal cells at 10 μM,[1],"Neuronal cells: 100, 100%"
same,BAS max effect,[2],268%
same,IC50,[3],270 nM
Cc1cnc(NC(=O)c2ccc3cccc(O)c3n2)s1 [PB 953],Cytotox (% viable) Neuronal cells at 1 μM,[1],94%
same,Cytotox (% viable) Neuronal cells at 10 μM,[1],68%
same,BAS max effect,[2],325%
same,IC50,[3],< 420 nM
O=C(NCCc1cnc[nH]1)c1cc(O)c2cccc(O)c2n1 [PB 954],Cytotox (% viable) Neuronal cells at 1 μM,[1],"Neuronal cells: 100, 100%"
same,Cytotox (% viable) Neuronal cells at 10 μM,[1],"Neuronal cells: 100, 100%"
same,BAS max effect,[2],134%
same,BAS concentration or concentration range at which an effect is observed,[2],1 µM
same,IC50,[3],120 nM
NCCNC(=O)c1ccc2cccc(O)c2n1 [PB 957],Cytotox (% viable) Neuronal cells at 1 μM,[1],106%
same,Cytotox (% viable) Neuronal cells at 10 μM,[1],96%
same,BAS max effect,[2],190%
same,BAS concentration or concentration range at which an effect is observed,[2],"1 μM, 100 μM"
same,IC50,[3],> 10000 nM
O/N=C/c1ccc2cccc(O)c2n1 [PB 969],Cytotox (% viable) Neuronal cells at 1 μM,[1],100%
same,Cytotox (% viable) Neuronal cells at 10 μM,[1],95%
same,BAS max effect,[2],385%
same,IC50,[3],540 nM
O=C(CNC(=O)c1cc(O)c2cccc(O)c2n1)NCCc1c[nH]cn1 [PB 987],Cytotox (% viable) Neuronal cells at 1 μM,[1],98%
same,Cytotox (% viable) Neuronal cells at 10 μM,[1],89%
same,BAS max effect,[2],393%
same,IC50,[3],1800 nM
O=C(CNC(=O)c1cc(O)c2cccc(O)c2n1)NCc1ccccn1 [PB 988],Cytotox (% viable) Neuronal cells at 1 μM,[1],"Neuronal cells: 93, 93%"
same,Cytotox (% viable) Neuronal cells at 10 μM,[1],"Neuronal cells: 93, 93%"
same,BAS max effect,[2],137%
same,IC50,[3],> 10000 nM
CN(CCc1ccccn1)Cc1ccc2cccc(O)c2n1 [PB 990],Cytotox (% viable) Neuronal cells at 1 μM,[1],97%
same,Cytotox (% viable) Neuronal cells at 10 μM,[1],57%
same,BAS max effect,[2],183%
same,IC50,[3],400 nM
Oc1cccc2ccc(CNCc3ccccn3)nc12 [PB 991],Cytotox (% viable) Neuronal cells at 1 μM,[1],96%
same,Cytotox (% viable) Neuronal cells at 10 μM,[1],67%
same,BAS max effect,[2],222%
same,IC50,[3],470 nM
